The subject of assay [1] is CAPAN-1 human pancreatic cancer cells. In words: Ihh and Shh mRNA expression in CAPAN-1 cells. Format: cell-based. The following applies: cyclopamine 4 μM, TO 2-5 μM, data not shown. Here is the method:
Expression of Shh and Ihh mRNA in human cultures of pancreatic cancer cells, CAPAN-1, L3.6p1, and E3LZ10.7 were analyzed by Q-RT-PCR and normalized to GAPDH expression. Cells were cultured in DMEM containing 10% FBS and RNA was extracted 3 days after seeding. Data from a representative experiment are reported as the mean of triplicate determinations±SD (p<0.001 for CAPAN-1 vs. other two cell types for Shh and 11 h mRNA expression).
Culturing CAPAN-1 cells in 1% vs. 10% FBS had no effects on their level of mRNA expression for 11th and Shh (data not shown), and treatment of CAPAN-1 cells with the Hh pathway inhibitor cyclopamine (4 μM) or the LXR agonist TO (2-5 μM) had no effect on the expression of Ihh or Shh mRNA in these cells (data not shown).

The test system of assay [2] is Hedgehog signaling pathway. In words: Ptch1 mRNA expression (Hh target gene) by Q-RT-PCR in Saos-2 cells. The note with it: Saos-2, 2% FBS, 72 hours; 2 or 4 τM TO, 4 μM cyclopamine (FIG. 5). Format: cell-based, human. The protocol:
Saos-2 cells were cultured in medium containing 2% FBS and were treated at confluence with 4 μM Cyc, 2 or 4 τM TO, alone or in combination for 72 hours. Expression of Ptch1 and Gli1 (data not shown) mRNA was measured by Q-RT-PCR and normalized to GAPDH.

A further assay deals with Hedgehog signaling. In words: CAPAN-1 conditioned-medium-induced Hh target gene expression (Ptch1, HHIP, Gli1) in C3H10T1/2 cells. Format: cell-based. The following applies: C3H10T1/2, 48 hours; TO 2 μM, Oxy16 5 μM, Cyc 4 μM (FIG. 10). The protocol:
Next, cells were treated with DMEM containing 5% […] or CAPAN-1 CM in the presence or absence of TO, Oxy16, or Cyc. After 48 hours, RNA was extracted and analyzed by Q-RT-PCR for the expression of Hh target genes Ptch1, HHIP, and Gli1 and normalized to GAPDH expression.
As noted above, Hh signaling appears to play an important role in the initiation and progression of pancreatic cancer (26), and the inhibition of HE signaling using small molecule antagonists inhibits pancreatic cancer cells from growing in vitro and in vivo (50). […] Subsequently, Hh signaling in stromal cells provides a permissive milieu for tumor cells to grow. […] In this Example, we examine this possibility using an in vitro model system in which Hh signaling is induced in C3H10T1/2 embryonic fibroblasts by conditioned-medium (CM) from CAPAN-1 human pancreatic cancer cells.
(§1) In order to assess the functional activity of Hh proteins produced by CAPAN-1 cells, we examined the ability of CM to induce Hh target gene expression in C3H10T1/2 embryonic fibroblasts.

Assay [3] has as its system C3H10T1/2 embryonic fibroblasts. In words: CAPAN-1 conditioned-medium-induced alkaline phosphatase activity in C3H10T1/2 cells. Format: cell-based. The note with it: C3H10T1/2, 3 days; TO 2 μM, Oxy16 5 μM, Cyc 4 μM (FIG. 11). Here is the method: Next, cells were treated with DMEM containing 5% FBS or CAPAN-1 CM in the presence or absence of TO, Oxy16, or Cyc. After 3 days, alkaline phosphatase activity assay using whole cell lysates was performed.
as §1

Take `CC1=C2C[C@H]3[C@@H](CC=C4C[C@@H](O)CC[C@@]43C)[C@@H]2CC[C@]12O[C@@H]1C[C@H](C)CN[C@H]1[C@H]2C` [cyclopamine]: the “expression of Ihh or Shh mRNA” value in assay [1] is reported as “no effect”. Further, the “Ptch1 mRNA expression” value in assay [2] is “significant inhibition”. For the same molecule, the “CAPAN-1 CM-induced expression of Hh target genes Ptch1, Gli1, HHIP” value with Hedgehog signaling was “completely inhibited”. Further, in assay [3], the “CAPAN-1 CM-induced ALP activity” value is listed as “inhibited”.

The values are drawn from patent US20160206631A1, “OXYSTEROLS THAT ACTIVATE LIVER X RECEPTOR SIGNALING AND INHIBIT HEDGEHOG SIGNALING” (THE REGENTS OF THE UNIVERSITY OF CALIFORNIA, priority 2010, published 2016).
